Measurements as given in patent US12403139B2, “Methods and compositions for prevention and treatment of cardiac hypertrophy” (University of Hawaii, priority 2010, dated 2025).

Legend:
[1] = test system: WT mice exposed to TAC; assay: Histological analysis of the heart 36 days post TAC (WGA-Alexa488 and picrosirius red staining); type: in vivo; details: BCTC treated TAC mice vs vehicle treated TAC mice
Protocol: Tissue preparation for histology. […] For histology, hearts were perfused with phosphate-buffered saline and 10% formalin in situ, collected immediately, and fixed overnight in 10% formalin at 4° C. Tissues were then cut in a sagittal orientation, embedded in paraffin, mounted on glass slides, and stored until use. Paraffin-embedded sections were stained for the following:
Collagen: Collagen volume fraction was determined by analysis of picrosirius stained sections. Sections cut to 5 μm thickness were deparaffinized, stained with Weigert's hematoxylin, then stained with picrosirius red (0.1% Sirius Red in picric acid). Sections were subsequently washed and dehydrated before image analysis.
Cardiomyocyte cross sectional area: Heart sections were deparaffinized and permeabilized, then stained with wheat germ-agglutinin conjugated to Alexa488 (WGA-Alexa488, Invitrogen, W11261) at a concentration of 50 μg/mL to identify sarcolemmal membranes and measure cardiomyocyte cross sectional area (described below).
Image collection and analysis. […] Fibrosis and cross-sectional cardiomyocyte area were quantified using ImageJ software (NIH). To quantify fibrosis, collagen fibers were highlighted, and the red-stained pixels were counted to determine the percentage of pixels in each field that represented collagen fibers. […]

[2] = test system: WT mice exposed to TAC; assay: Pressure overload cardiac hypertrophy by transverse aortic constriction (TAC): heart weight and echocardiography; type: in vivo
Protocol: Transverse Aortic Constriction (TAC). Transverse aortic constriction was performed as described by Rockman, producing left ventricular hypertrophy by constriction of the aorta (Rockman et al., 1994; Rockman et al., 1991). The left side of the chest was depilated with Nair and a baseline 2-D echocardiogram was obtained. Mice were then deeply anesthetized with a mixture of ketamine and xylazine. The transverse aorta between the brachiocephalic and left carotid artery was banded using 6-0 silk ligature around the vessel and a 26 G blunt needle, after which the needle was withdrawn. Sham surgeries were identical apart from the constriction of the aorta.
Transthoracic echocardiography. Baseline and post TAC transthoracic echocardiography were used to assess changes in mouse heart dimensions and function. Briefly, after two days of acclimatization and depilation, unanesthetized transthoracic echocardiography was performed using a 30-Mhz transducer (Vevo 770, VisualSonics). High quality two-dimensional images and M-mode images of the left ventricle were recorded. Measurements of left ventricular end-diastolic (LVIDd) and end-systolic (LVIDs) internal dimensions were performed by the leading edge to leading edge convention adopted by the American Society of Echocardiography. The left ventricular ejection fraction (% EF) was calculated as (LV Vol; d-LV Vol; s/LV Vol; d×100) (Visualsonics Inc.).
Osmotic pump installation. Long term (up to 42 day) infusion of drugs can be accomplished by insertion of osmotic pumps without the need for repeated injection. Mice are placed under a low plane of anesthesia with an injection of Ketamine/Xylazine anesthetic (50 mg/10 mg·Kg) intraperitoneally (IP) 10 minutes prior to surgery. A small area between shoulder blades is shaved and sterilized with Povidine swab. A small incision is made in this area and blunt dissected below skin to allow placement of an Alzet osmotic pump (model 2006), previously loaded with the drug of choice under the skin between the shoulder blades where it is inaccessible to the mouse. Several stitches are applied to close the incision. The mouse is placed in regular housing on a warming mat until completely conscious, after which mice are then returned to regular housing room.
The mice were subjected to pressure overload induced cardiac hypertrophy by TAC while administered 4 mg/kg of BCTC (in 20% wt/vol 2-Hydroxypropyl)-β-cyclodextrin/PBS) throughout the entire experiment using osmotic pumps (Alzet, Model 2006) pumping continuously at a rate of 0.15 ul/hr. The test was limited to ˜42 days (max) by the function of the pumps, as such the experiment was halted at 36 days post TAC, as pumps are installed previous to the TAC to allow recovery before the TAC surgery. […] This protection from dilation of the left ventricle translates to a protection in the function of the heart as measured by ejection fraction (% EF, p<0.05) and fractional shortening (% FS).

`CC(C)(C)c1ccc(NC(=O)N2CCN(c3ncccc3Cl)CC2)cc1` [BCTC, N-(4-tertiarybutylphenyl)-4-(3-chloropyridin-2-yl)tetrahydropyrazine-1(2H)-carboxamide] was tested, and the “cardiomyocyte cross sectional area” value ([1]; p=<0.01, n=100 (FIG. 9A)) was “significantly smaller myocytes in BCTC treated TAC mice than vehicle treated TAC control mice”, the “interstitial collagen (area of collagen staining as a percentage of tissue area)” value ([1]; picrosirius red, p=0.05 (FIG. 9B)) was “significantly less interstitial collagen in BCTC treated TAC mice than vehicle treated TAC control mice” and the “fractional shortening (% FS)” value ([2]; TAC mice, 4 mg/kg BCTC by osmotic pump, 36 days post TAC, vs vehicle, p<0.01 (FIG. 8E)) was “significantly diminished at 36 days post TAC compared to drug-treated mice”. The “ejection fraction (% EF)” value ([2]; TAC mice, 4 mg/kg BCTC by osmotic pump, 36 days post TAC, vs vehicle, p<0.05 (FIG. 8D)) was “significantly diminished at 36 days post TAC compared to drug-treated mice”, the “heart weight/body weight ratio” value ([2]; TAC mice, 4 mg/kg BCTC by osmotic pump, 36 days post TAC, vs vehicle, p=0.035 (FIG. 8A)) was “significantly greater in vehicle treated WT mice than drug treated mice” and the “left ventricular internal diameter end-diastolic (LVIDd), TAC mice” value ([2]; TAC mice, 4 mg/kg BCTC by osmotic pump, zero to 36 days, vs vehicle, significantly different after 18 days, p<0.001 (FIG. 8C)) was “significantly smaller LVIDd than the vehicle treated TAC mice”. For the same compound, the “LVIDd over time in TAC mice” value ([2]; TAC mice, 4 mg/kg BCTC by osmotic pump, vehicle mice start increasing diameter at 9 days) was “the diameter is maintained for the duration of the test” and the “left ventricular internal diameter (LVID,d), sham mice” value ([2]; sham mice, BCTC vs vehicle, echocardiography every 9 days (FIG. 8B)) was “no difference”.
